Results as given in patent US20250042875A1, “PESTICIDALLY ACTIVE PYRIDAZINONE COMPOUNDS” (SYNGENTA CROP PROTECTION AG, priority 2021, published 2025).

Columns and labels:
Format in all cases: in vivo
[1] = test system: Myzus persicae; test: Activity against Myzus persicae (green peach aphid), feeding/contact activity; conditions: 144 h, application rate 200 ppm, 6 days after infestation
Description: Example B5: Activity Against Myzus persicae (Green Peach Aphid). Feeding/Contact Activity
Sunflower leaf discs were placed onto agar in a 24-well microtiter plate and sprayed with aqueous test solutions prepared from 10′000 ppm DMSO stock solutions. After drying, the leaf discs were infested with an aphid population of mixed ages. The samples were assessed for mortality 6 days after infestation.

[2] = test system: Chilo suppressalis; test: Activity against Chilo suppressalis (striped rice stemborer), artificial diet, L2 larvae; conditions: 144 h, application rate 200 ppm, 6 days after infestation, read-out: control in at least one of the three categories (mortality, anti-feedant effect, or growth inhibition)
Description: Example B1: Activity Against Chilo suppressalis (Striped Rice Stemborer)
24-well microtiter plates with artificial diet were treated with aqueous test solutions prepared from 10′000 ppm DMSO stock solutions by pipetting. After drying, the plates were infested with L2 larvae (6-8 per well). The samples were assessed for mortality, anti-feeding effect, and growth inhibition in comparison to untreated samples 6 days after infestation. Control of Chilo suppressalis by a test sample is given when at least one of the categories mortality, anti-feedant effect, and growth inhibition is higher than the untreated sample.

[3] = test system: Spodoptera littoralis; test: Activity against Spodoptera littoralis (Egyptian cotton leaf worm), cotton leaf discs, L1 larvae; conditions: foliar, 72 h, application rate 200 ppm, 3 days after infestation, read-out: control in at least one of the three categories (mortality, anti-feedant effect, or growth inhibition)
Description: Example B8: Activity Against Spodoptera littoralis (Egyptian Cotton Leaf Worm)
Cotton leaf discs were placed onto agar in 24-well microtiter plates and sprayed with aqueous test solutions prepared from 10′000 ppm DMSO stock solutions. After drying the leaf discs were infested with five L1 larvae. The samples were assessed for mortality, anti-feeding effect, and growth inhibition in comparison to untreated samples 3 days after infestation. Control of Spodoptera littoralis by a test sample is given when at least one of the categories mortality, anti-feedant effect, and growth inhibition is higher than the untreated sample.

[4] = test system: Plutella xylostella; test: Activity against Plutella xylostella (diamond back moth), artificial diet, eggs; conditions: 192 h, application rate 200 ppm, 8 days after infestation, read-out: control in at least one of the two categories (mortality or growth inhibition)
Description: Example B7: Activity Against Plutella xylostella (Diamond Back Moth)
24-well microtiter plates with artificial diet were treated with aqueous test solutions prepared from 10′000 ppm DMSO stock solutions by pipetting. After drying, Plutella eggs were pipetted through a plastic stencil onto a gel blotting paper and the plate was closed with it. The samples were assessed for mortality and growth inhibition in comparison to untreated samples 8 days after infestation.

[5] = test system: Diabrotica balteata; test: Activity against Diabrotica balteata (corn root worm), maize sprouts, L2 larvae; conditions: 96 h, application rate 200 ppm, 4 days after infestation, read-out: control in at least one of the two categories (mortality or growth inhibition)
Description: Example B2: Activity Against Diabrotica Balteata (Corn Root Worm)
Maize sprouts placed onto an agar layer in 24-well microtiter plates were treated with aqueous test solutions prepared from 10′000 ppm DMSO stock solutions by spraying. After drying, the plates were infested with L2 larvae (6 to 10 per well). The samples were assessed for mortality and growth inhibition in comparison to untreated samples 4 days after infestation.

[6] = test system: Myzus persicae; test: Activity against Myzus persicae (green peach aphid), intrinsic activity; conditions: 120 h, test rate 12 ppm, 5 days after infestation
Excerpt: Example B6: Activity Against Myzus persicae (Green Peach Aphid). Intrinsic Activity
Test compounds prepared from 10′000 ppm DMSO stock solutions were applied by pipette into 24-well microtiter plates and mixed with sucrose solution. The plates were closed with a stretched Parafilm. A plastic stencil with 24 holes was placed onto the plate and infested pea seedlings were placed directly on the Parafilm. The infested plate was closed with a gel blotting paper and another plastic stencil and then turned upside down. The samples were assessed for mortality 5 days after infestation.

[7] = test system: Euschistus heros; test: Activity against Euschistus heros (neotropical brown stink bug), soybean leaves, N2 nymphs; conditions: 120 h, application rate 200 ppm, 5 days after infestation, read-out: effect in at least one of the two categories (mortality or growth inhibition)
Description: Example B3: Activity Against Euschistus heros (Neotropical Brown Stink Bug)
Soybean leaves on agar in 24-well microtiter plates were sprayed with aqueous test solutions prepared from 10′000 ppm DMSO stock solutions. After drying the leaves were infested with N2 nymphs. The samples were assessed for mortality and growth inhibition in comparison to untreated samples 5 days after infestation.

C[C@H](NC(=O)c1cc(C(F)(F)F)cc(C(F)(F)F)c1)c1ncnn1-c1ccc(=O)n(C)n1 [P1, N-[(1S)-1-[2-(1-methyl-6-oxo-pyridazin-3-yl)-1,2,4-triazol-3-yl]ethyl]-3,5-bis(trifluoromethyl)benzamide]
≥ 80%: mortality at 200 ppm [1] | percent control (mortality, anti-feedant effect or growth inhibition) at 200 ppm [2] | percent control (mortality, anti-feedant effect or growth inhibition) at 200 ppm [3] | percent control (mortality or growth inhibition) at 200 ppm [4] | percent control (mortality or growth inhibition) at 200 ppm [5] | mortality at 12 ppm [6] | percent effect (mortality or growth inhibition) at 200 ppm [7]

C[C@H](NC(=O)c1cc(C(F)(F)F)cc(S(=O)(=O)C(F)(F)F)c1)c1ncnn1-c1ccc(=O)n(C)n1 [P8, N-[(1S)-1-[2-(1-methyl-6-oxo-pyridazin-3-yl)-1,2,4-triazol-3-yl]ethyl]-3-(trifluoromethyl)-5-(trifluoromethylsulfonyl) benzamide]
≥ 80%: mortality at 200 ppm [1] | percent control (mortality, anti-feedant effect or growth inhibition) at 200 ppm [2] | percent control (mortality, anti-feedant effect or growth inhibition) at 200 ppm [3] | percent control (mortality or growth inhibition) at 200 ppm [4] | percent control (mortality or growth inhibition) at 200 ppm [5] | mortality at 12 ppm [6] | percent effect (mortality or growth inhibition) at 200 ppm [7]

CC(NC(=O)c1cc(Cl)cc(OC(F)(F)F)c1)c1nccnc1-c1ccc(=O)n(C)n1 (stereo not shown) [P11, 3-chloro-N-[1-[3-(1-methyl-6-oxopyridazin-3-yl)pyrazin-2-yl]ethyl]-5-(trifluoromethoxy) benzamide]
≥ 80%: mortality at 200 ppm [1] | percent control (mortality, anti-feedant effect or growth inhibition) at 200 ppm [2] | percent control (mortality, anti-feedant effect or growth inhibition) at 200 ppm [3] | percent control (mortality or growth inhibition) at 200 ppm [4] | percent control (mortality or growth inhibition) at 200 ppm [5] | mortality at 12 ppm [6] | percent effect (mortality or growth inhibition) at 200 ppm [7]

CC(NC(=O)c1cc(OC(F)F)cc(C(F)(F)F)c1)c1nccnc1-c1ccc(=O)n(C)n1 (stereo not shown) [P14, 3-(difluoromethoxy)-N-[1-[3-(1-methyl-6-oxo-pyridazin-3-yl)pyrazin-2-yl]ethyl]-5-(trifluoromethyl)benzamide]
≥ 80%: mortality at 200 ppm [1] | percent control (mortality, anti-feedant effect or growth inhibition) at 200 ppm [2] | percent control (mortality, anti-feedant effect or growth inhibition) at 200 ppm [3] | percent control (mortality or growth inhibition) at 200 ppm [4] | percent control (mortality or growth inhibition) at 200 ppm [5] | mortality at 12 ppm [6] | percent effect (mortality or growth inhibition) at 200 ppm [7]

CCn1nc(-n2ncnc2[C@H](C)NC(=O)c2cc(Cl)cc(C(F)(F)F)c2)ccc1=O [P16, 3-chloro-N-[(1S)-1-[2-(1-ethyl-6-oxo-pyridazin-3-yl)-1,2,4-triazol-3-yl]ethy]-5-(trifluoromethyl)benzamide]
≥ 80%: mortality at 200 ppm [1] | percent control (mortality, anti-feedant effect or growth inhibition) at 200 ppm [2] | percent control (mortality, anti-feedant effect or growth inhibition) at 200 ppm [3] | percent control (mortality or growth inhibition) at 200 ppm [4] | percent control (mortality or growth inhibition) at 200 ppm [5] | mortality at 12 ppm [6] | percent effect (mortality or growth inhibition) at 200 ppm [7]

C[C@H](NC(=O)c1cc(Cl)cc(S(=O)(=O)C(F)(F)F)c1)c1ncnn1-c1ccc(=O)n(C)n1 [P20, 3-chloro-N-[(1S)-1-[2-(1-methyl-6-oxo-pyridazin-3-yl)-1,2,4-triazol-3-yl]ethyl]-5-(trifluoromethylsulfonyl) benzamide]
≥ 80%: mortality at 200 ppm [1] | percent control (mortality, anti-feedant effect or growth inhibition) at 200 ppm [2] | percent control (mortality, anti-feedant effect or growth inhibition) at 200 ppm [3] | percent control (mortality or growth inhibition) at 200 ppm [4] | percent control (mortality or growth inhibition) at 200 ppm [5] | mortality at 12 ppm [6] | percent effect (mortality or growth inhibition) at 200 ppm [7]

C[C@@H](c1ncnn1C1=NN(C)C(=O)CC1)N(C)C(=O)c1cc(Cl)cc(C(F)(F)F)c1 [P23, 3-chloro-N-methyl-N-[(1S)-1-[2-(1-methyl-6-oxo-4,5-dihydropyridazin-3-yl)-1,2,4-triazol-3-yl]ethyl]-5-(trifluoromethyl)benzamide]
≥ 80%: mortality at 200 ppm [1] | percent control (mortality, anti-feedant effect or growth inhibition) at 200 ppm [2] | percent control (mortality, anti-feedant effect or growth inhibition) at 200 ppm [3] | percent control (mortality or growth inhibition) at 200 ppm [4] | percent control (mortality or growth inhibition) at 200 ppm [5] | mortality at 12 ppm [6] | percent effect (mortality or growth inhibition) at 200 ppm [7]

C[C@H](NC(=O)c1cc(Cl)cc(OC(F)(F)F)c1)c1ncnn1-c1ccc(=O)n(C)n1 [P26, 3-chloro-N-[(1S)-1-[2-(1-methyl-6-oxo-pyridazin-3-yl)-1,2,4-triazol-3-yl]ethyl]-5-(trifluoromethoxy)benzamide]
≥ 80%: mortality at 200 ppm [1] | percent control (mortality, anti-feedant effect or growth inhibition) at 200 ppm [2] | percent control (mortality, anti-feedant effect or growth inhibition) at 200 ppm [3] | percent control (mortality or growth inhibition) at 200 ppm [4] | percent control (mortality or growth inhibition) at 200 ppm [5] | mortality at 12 ppm [6] | percent effect (mortality or growth inhibition) at 200 ppm [7]

C[C@H](NC(=O)c1cc(Cl)cc(Br)c1)c1ncnn1-c1ccc(=O)n(C)n1 [P27, 3-bromo-5-chloro-N-[(1S)-1-[2-(1-methyl-6-oxo-pyridazin-3-yl)-1,2,4-triazol-3-yl]ethyl]benzamide]
≥ 80%: mortality at 200 ppm [1] | percent control (mortality, anti-feedant effect or growth inhibition) at 200 ppm [2] | percent control (mortality, anti-feedant effect or growth inhibition) at 200 ppm [3] | percent control (mortality or growth inhibition) at 200 ppm [4] | percent control (mortality or growth inhibition) at 200 ppm [5] | mortality at 12 ppm [6] | percent effect (mortality or growth inhibition) at 200 ppm [7]

C[C@H](NC(=O)c1cc(Cl)cc(I)c1)c1ncnn1-c1ccc(=O)n(C)n1 [P28, 3-chloro-5-iodo-N-[(1S)-1-[2-(1-methyl-6-oxo-pyridazin-3-yl)-1,2,4-triazol-3-yl]ethyl]benzamide]
≥ 80%: mortality at 200 ppm [1] | percent control (mortality, anti-feedant effect or growth inhibition) at 200 ppm [2] | percent control (mortality, anti-feedant effect or growth inhibition) at 200 ppm [3] | percent control (mortality or growth inhibition) at 200 ppm [4] | percent control (mortality or growth inhibition) at 200 ppm [5] | mortality at 12 ppm [6] | percent effect (mortality or growth inhibition) at 200 ppm [7]

C[C@H](NC(=O)c1cc(Cl)nc(C2(C#N)CC2)c1)c1ncnn1-c1ccc(=O)n(C)n1 [P35, 2-chloro-6-(1-cyanocyclopropyl)-N-[(1S)-1-[2-(1-methyl-6-oxo-pyridazin-3-yl)-1,2,4-triazol-3-yl]ethyl]pyridine-4-carboxamide]
≥ 80%: mortality at 200 ppm [1] | percent control (mortality, anti-feedant effect or growth inhibition) at 200 ppm [2] | percent control (mortality or growth inhibition) at 200 ppm [4] | mortality at 12 ppm [6] | percent effect (mortality or growth inhibition) at 200 ppm [7]

CC(NC(=O)c1cc(OC(F)F)cc(C2(C#N)CC2)c1)c1nccnc1-c1ccc(=O)n(C)n1 (stereo not shown) [P44, 3-(1-cyanocyclopropyl)-5-(difluoromethoxy)-N-[1-[3-(1-methyl-6-oxo-pyridazin-3-yl)pyrazin-2-yl]ethyl]benzamide]
≥ 80%: mortality at 200 ppm [1] | percent control (mortality, anti-feedant effect or growth inhibition) at 200 ppm [2] | percent control (mortality, anti-feedant effect or growth inhibition) at 200 ppm [3] | percent control (mortality or growth inhibition) at 200 ppm [4] | mortality at 12 ppm [6] | percent effect (mortality or growth inhibition) at 200 ppm [7]

C[C@H](NC(=O)c1cc(OC(F)F)cc(C2(C#N)CC2)c1)c1ncnn1-c1ccc(=O)n(C)n1 [P45, 3-(1-cyanocyclopropyl)-5-(difluoromethoxy)-N-[(1S)-1-[2-(1-methyl-6-oxo-pyridazin-3-yl)-1,2,4-triazol-3-yl]ethyl]benzamide]
≥ 80%: mortality at 200 ppm [1] | percent control (mortality, anti-feedant effect or growth inhibition) at 200 ppm [2] | mortality at 12 ppm [6] | percent effect (mortality or growth inhibition) at 200 ppm [7]
